This note sets out measurements from patent publication US20140357620A1, “METHOD FOR ADMINISTRATION OF A GAMMA SECRETASE INHIBITOR” (Hoffmann-La Roche Inc., priority 2011, published 2014).

As usually defined, the half-life is the time in which the quantity being followed falls by half.

Read-outs that look alike come from different tables or passages of the source.

Series [1] in a line: ongoing first phase 1 trial of Compound A (pharmacokinetics). Set-up: species or system patients. The conditions noted are these: human, in vivo, oral. The text has this:
This schedule (C) includes 11 dosing days in a 3-week cycle.

Details of series [2]: species or system patients. The settings on record: human, in vivo. The procedure: If deemed safe, then dose escalation to dose intensities at and above that given in the 3-4 schedule at 270 mg/day will be performed. For safety reasons, the first cohorts of patients enrolled in schedules C, D, E and F will be treated with lower doses (dose level 1: 14% to 37% of dose intensity of 3-4 schedule at 270 mg). Then in the subsequent cohorts, the dose will be escalated by 50%-100%.

As for `CC(C)(C(=O)NCC(F)(F)C(F)(F)F)C(=O)N[C@@H]1C(=O)Nc2ccccc2-c2ccccc21` [Compound A, 2,2-dimethyl-N-((S)-6-oxo-6,7-dihydro-5H-dibenzo[b,d]azepin-7-yl)-N′-(2,2,3,3,3-pentafluoro-propyl)-malonamide], the half-life in series [1] (mean, read-out: mean terminal half-life (converted)) was 42.2 h; in series [1] (range, read-out: terminal half-life (range)), 10 to 93 h. The “highest safe dose tested so far” value in series [2] is 270 mg/day.
